The record followed here is paper PMC11960969, “Mdga2 deficiency leads to an aberrant activation of BDNF/TrkB signaling that underlies autism-relevant synaptic and behavioral changes in mice” (PLOS Biology, 2025).

Values joined by “and” are separate entries in the source; they are usually repeats but may differ in a detail not shown here. Identical values can stand only once. No end group written: not given here.

Test [1] concerns mice. In words: Three-chamber test (sociability and social novelty). The format is in vivo, mouse. Further details: key to Sociability, Figure S4G: sociability index = (T_S1 - T_E)/(T_S1 + T_E), sniffing time; key to Social novelty, Figure S4G: social novelty index = (T_S2 - T_S1)/(T_S2 + T_S1), sniffing time. As to conditions: for Sociability, Figure S4G / Social novelty, Figure S4G: individual animals. The method, then: (§1) Six- to eight-week-old male mice were subjected to various behavioral tests. Mice were allowed to acclimatize in the testing room for 1 h prior to each test. Data were recorded and analyzed using Smart 3.0 video tracking system (Panlab, Harvard Apparatus).
This test was performed as described previously with minor modifications. The apparatus (60 W × 40 D × 22 H cm) has two transparent partitions separating the left, the middle, and the right chambers (20 × 40 cm each), and each partition has a small opening (5 × 5 cm) for access to each chamber. A fixed wire cylinder (8.5 cm diameter) was placed in each of the left and the right chambers. This test consisted of three phases: habituation, sociability test, and social novelty test. During habituation, both left and right cylinders were empty, and tested mice were placed in the center and allowed to explore freely for 10 min. During the sociability test, a gender-matched strange mouse (S1) was enclosed in one empty cylinder, and mice were allowed to freely explore for 10 min. Their time spent sniffing S1 or the other empty cylinder (E) was measured and the sociability preference index (T(S1 − -E)/T(S1 + E): time spent sniffing S1 minus time spent sniffing E over time spent sniffing both S1 and E) was calculated for comparison. During the social novelty test, another gender-matched unfamiliar mouse (S2) was placed into the empty cylinder and mice were allowed to freely explore for another 10 min. Their time spent sniffing S1 or S2 was measured and the social novelty preference index (T(S2 − S1)/T(S2 + S1): time spent sniffing S2 minus time spent sniffing S1 over time spent sniffing both S2 and S1) was calculated for comparison.

The test system of test [2] is mice. Put plainly: Open field test.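 Further: values are total travel distance.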 It counts as in vivo, mouse. Further details: OFT (open field test), Figure S4C: unit not given here. The settings on record: individual animals. The method, then:
as §1
Mice were gently placed in the center of an open field apparatus (40 × 40 × 40 cm), and allowed for a 10-min period of free movement. Total distance traveled and time spent in center were analyzed.

In test [3] the test system is mice. Put plainly: Novel location recognition (NLR) test. On the set-up: key to NLR (novel location recognition), Figure S4D: discrimination index = (T novel − T familiar)/(T novel + T familiar). As to conditions: for NLR (novel location recognition), Figure S4D: individual animals. It counts as in vivo, mouse. The method, then: as §1
This test consists of habituation, training, and testing phases. Mice were first put into the open field apparatus described above for 10 min habituation. During the training phase, mice were allowed to freely explore two identical objects placed near two opposite corners of the open field arena for 8 min. Twenty-four hour later, one of the objects was moved to be close to a third corner (N: Novel location) while the other one was kept in the same spatial position (F: Familiar location). Mice were then tested for their exploration behavior with these objects for 8 min. The discrimination index (T(N − F)/T(N + F): time spent exploring the novel location minus time spent in familiar location over time spent to both novel and familiar location) was calculated to assess the recognition memory of mice.

In test [4] the test system is mice. Put plainly: Self-grooming test. The format is in vivo, mouse. Further details: Repetitive behaviors / Repetitive behaviors, Figure S4E: unit not given here. The settings on record: for Repetitive behaviors: Figure 5D; for Repetitive behaviors / Repetitive behaviors, Figure S4E: Test2, individual animals. The method, then:
as §1
Tested mice were placed individually in a clean cage with fresh bedding. After 5 min of habituation, the spontaneous behaviors of mice were recorded for 30 min and their self-grooming behavior was analyzed.

In test [5] the test system is mice. Put plainly: Social affiliation test. The settings on record: Mdga2+/- mice, 1 mg/kg i.p., 60 min, n = 10. The format is in vivo, mouse. The procedure:
as §1
The test procedure was similar to that described previously. Briefly, a cylinder (8.5 cm in diameter) with a gender-matched reference mouse confined was placed at a specific location in an open field (40 cm in diameter). Tested mice were allowed to move freely in the open field for 7 min and their sniffing time with the reference mice was analyzed.

The subject of another test is human TrkB protein. Put plainly: GST pull-down of purified human TrkB with MDGA2 fragments. It counts as binding. The settings on record: in vitro, GST-tagged fragments. The method, then:
Full-length human TrkB or MDGA2 cDNA was cloned into the pcDNA6-His vector. TrkB and MDGA2 proteins were expressed in HEK293T cells and then purified using a His-tag Protein Purification Kit (Beyotime, Cat# P2229S).
GST pull-down: GST-fused MDGA2 fragments (L1: MDGA2 aa 746−786; L2: MDGA2 aa 787−833) were expressed in bacteria and purified using Glutathione Sepharose 4B (GE Healthcare, Cat# 17-0756-01). Purified human TrkB protein was incubated with GST-fused MDGA2-L1, MDGA2-L2, or GST proteins and then pulled down with Glutathione Sepharose 4B.

The test system of the next test is hippocampal proteins. In words: DIA quantification proteomics, hippocampus of Mdga2+/- vs WT mice. The settings on record: S3 Table, downregulated DEPs; for log2FC: Mdga2+/- vs WT mouse hippocampus (HET-HIP-VS-WT-HIP), SE, pvalue and adj_pvalue in own columns c3-c5; for Class: regulation class of the protein, HET-HIP-VS-WT-HIP. Further details: species or system mouse. The procedure: The hippocampus of 1.5–2-month-old Mdga2^ +/− male mice and their WT littermate controls was collected and sent to the BGI company for DIA quantification proteomics and data analysis. Briefly, samples were lysed and sonicated. After centrifugation, the supernatant was taken for quantification. Equal amounts of proteins (100 μg) per sample were subjected to trypsin enzymatic hydrolysis. After dryness, 10 μg enzymatic peptides per sample were separated by high-pH fractionation into a total of 10 fractions using high-performance liquid chromatography (HPLC) and freeze-dried. Data-dependent acquisition (DDA) fractions and DIA samples were analyzed by nano-LC–MS/MS. DDA data was identified by Andromeda search engine within MaxQuant. Identified results were used by Spectronaut^TM for spectral library construction. For DIA data, Spectronaut^TM used the constructed spectral library information to complete deconvolution and extraction, and used the mProphet algorithm to complete analytical quality control for obtaining reliable quantitative results. The mass spectrometry proteomics data have been deposited to the ProteomeXchange Consortium via the PRIDE [62] partner repository with the dataset identifier PXD050810. DEPs between comparison groups were identified based on the quantitative results, using the fold change >1.1 and p-value <0.05 as the criteria. After retrieval from the UniProtKB database, identified DEPs were processed for GO analysis by using DAVID (https://david.ncifcrf.gov/home.jsp) and Metascape database (https://metascape.org/gp/index.html).

[6] abbreviates: Mdga2+/- mice, 1 mg/kg i.p., 60 min, n = 10.

On to `O=C(Nc1ccccc1C(=O)NC1CCCCNC1=O)c1cc2ccccc2s1` (stereo not shown) [ANA12], for which the “Sociability, Figure S4G” value is 0.42 and 0.0153 and 0.50 and 0.46 and 0.24 and 0.59 and 0.23 and -0.06 and 0.14 and 0.34 and 0.26 and 0.0119 and 0.40 in the test on mice [1] (Het+ANA12, Test1); 0.33 and -0.13 and 0.40 and 0.15 and 0.02 and -0.01 and 0.31 and 0.35 and 0.08 and 0.17 and 0.12 and 0.27 and -0.04 and -0.19 and 0.54 in the test with mice [1] (Het+ANA12, Test2); 0.72 and 0.46 and 0.41 and 0.66 and 0.61 and 0.33 and 0.44 and 0.36 and 0.55 and -0.10 and 0.22 and -0.13 and 0.11 in the test with mice [1] (WT+ANA12, Test1); 0.39 and 0.66 and 0.10 and -0.24 and 0.51 and 0.65 and 0.38 and 0.48 and 0.50 and 0.31 and 0.54 and 0.29 and 0.71 and 0.09 and 0.47 in the test on mice [1] (WT+ANA12, Test2). Besides, the “Social novelty, Figure S4G” value in the test with mice [1] (Het+ANA12, Test1) is 0.24 and 0.45 and 0.21 and -0.09 and -0.20 and 0.40 and 0.11 and -0.13 and 0.0948 and 0.000711 and 0.03 and 0.09 and 0.14 and 0.35; with mice [1] (Het+ANA12, Test2), 0.15 and -0.17 and 0.23 and 0.32 and 0.18 and 0.16 and 0.44 and -0.13 and 0.0424 and -0.07 and 0.41 and -0.0144 and 0.06 and 0.0317 and 0.11; in the test on mice [1] (WT+ANA12, Test1), 0.05 and 0.43 and 0.53 and -0.13 and 0.39 and 0.40 and 0.32 and 0.62 and 0.44 and 0.33 and -0.01 and 0.18 and 0.61 and -0.10; with mice [1] (WT+ANA12, Test2), -0.06 and 0.16 and 0.50 and 0.26 and 0.08 and 0.12 and 0.42 and 0.30 and 0.55 and 0.58 and 0.27 and 0.11 and 0.33. The “OFT (open field test), Figure S4C” value was 39.1 and 38.5 and 30.9 and 34.7 and 41.8 and 45.2 and 48.5 and 34.6 and 26.5 in the test with mice [2] (Het+ANA12, Test1); 19.1 and 38.5 and 35 and 43.1 and 30.9 and 22 and 39 and 30.4 and 45.6 and 31.5 and 29.6 and 25.1 and 49.6 and 27.8 and 28.2 with mice [2] (Het+ANA12, Test2); 46.5 and 20.6 and 31.2 and 41.8 and 24 and 27.1 and 44.6 and 35 and 26.6 and 21.8 and 34.8 and 37 and 41.1 and 19.1 and 26.9 in the test with mice [2] (WT+ANA12, Test1); 43.3 and 20.5 and 26 and 46 and 26.1 and 37.1 and 47.7 and 21.2 and 24.6 and 27.2 and 22 and 34.1 and 17 and 29.8 and 32.4 in the test on mice [2] (WT+ANA12, Test2). Moreover, the “NLR (novel location recognition), Figure S4D” value in the test with mice [3] (Het+ANA12, Test1) is -0.13 and 0.49 and 0.11 and 0.03 and 0.36 and -0.0741 and 0.20 and 0.55 and 0.14 and 0.51 and 0.0439 and 0.0756 and 0.45 and 0.32 and -0.03; with mice [3] (Het+ANA12, Test2), 0.15 and 0.00112 and 0.11 and 0.43 and 0.18 and -0.10 and 0.51 and 0.26 and -0.18 and 0.30 and 0.00129 and 0.14 and -0.04; in the test on mice [3] (WT+ANA12, Test1) it was 0.36 and 0.47 and 0.12 and 0.06 and 0.23 and 0.50 and 0.35 and 0.32 and -0.035 and 0.43 and 0.37 and -0.09 and 0.25 and 0.51 and -0.07; with mice [3] (WT+ANA12, Test2) it was -0.05 and 0.41 and 0.35 and 0.09 and 0.46 and -0.12 and 0.53 and 0.45 and 0.17 and 0.20 and -0.17 and 0.62 and 0.54. Moreover, the Repetitive behaviors in the test on mice [4] (Het+ANA12) is 19 and 17 and 36 and 33 and 26 and 14 and 10 and 20 and 12 and 38 and 29 and 30 and 22 and 16; in the test with mice [4] (WT+ANA12), 32 and 20 and 14 and 10 and 7 and 25 and 9 and 18 and 8 and 11 and 13. Moreover, the “Repetitive behaviors, Figure S4E” value is 15 and 19 and 11 and 20 and 12 and 38 and 30 and 29 and 18 and 13 and 26 and 32 and 22 and 35 in the test on mice [4] (Het+ANA12); 12 and 22 and 6 and 30 and 5 and 14 and 8 and 18 and 10 and 16 and 9 and 20 and 17 and 11 in the test with mice [4] (WT+ANA12).

For the compound `CCN(CC)Cc1cccc(/C=C/c2nc3ccc(F)cc3c(=O)n2-c2ccccc2Cl)n1` [CP-465022, reference compound], in the test on mice [1] (setting [6]), the sociability result was “rapidly promoted social affiliation and sociability”; the social novelty result was “without affecting social novelty”. The recognition memory result in the test with mice [3] (setting [6]) is on record as “without affecting social novelty, recognition memory”. In the test on mice [4] (setting [6]), the repetitive self-grooming behavior result is “without affecting social novelty, recognition memory, and repetitive self-grooming behavior”. Further, the social affiliation result with mice [5] was “rapidly promoted social affiliation”.

Consider “L1: GST-fused MDGA2 fragment aa 746−786 (FHCGFEDGNICLFTQDDTDNFDWTKQSTATRNTKYTPNTGP; cysteine pairing not given here; also: GST-fused)”, for which, in the test on human TrkB protein, the “interaction with TrkB (GST pull-down)” value is reported as “not GST-tagged L1 interacted with TrkB”.

With “L2: GST-fused MDGA2 fragment aa 787−833 (NADRSGSKEGFYMYIETSRPRLEGEKARLLSPVFSIAPKNPYGPTNT; also: GST-fused)”, the “interaction with TrkB (GST pull-down)” value with human TrkB protein was “interacted with TrkB”.

Take sp¦A2A791¦ZMYM4_MOUSE: in the test on hippocampal proteins, the log2FC is -2.935 and the Class result is on record as “Down”.

As to sp¦A2AF47¦DOC11_MOUSE, in the test with hippocampal proteins, the log2FC is given as -1.478 and the Class result is reported as “Down”.

For sp¦P27038¦AVR2A_MOUSE, in the test on hippocampal proteins, the log2FC was -1.635 and the Class entry is on record as “Down”.

Consider sp¦P97433¦ARG28_MOUSE, for which, in the test on hippocampal proteins, the log2FC is -1.853 and the Class entry is “Down”.

Regarding sp¦Q0VGY8¦TANC1_MOUSE, in the test with hippocampal proteins, the log2FC was -2.363 and the Class entry was “Down”.

Turning to sp¦Q3UQ44¦IQGA2_MOUSE, in the test with hippocampal proteins, the log2FC was -1.377 and the Class result was “Down”.

As for sp¦Q80YX1¦TENA_MOUSE, in the test on hippocampal proteins, the log2FC is -1.6471 and the Class result is on record as “Down”.

sp¦Q91WG7¦DGKG_MOUSE: in the test on hippocampal proteins, the log2FC was -3.157 and the Class result is listed as “Down”.
